From patent publication US7090834B1, “Vascular endothelial cell growth factor variants and uses thereof” (Genentech, Inc., priority 1999, dated 2006)

Experiments:
HUVEC cells = assay: HUVEC migration, modified Boyden chamber assay; format: cell-based, human; conditions: 18 hour assay, FIG. 14A
Method: One of the central aspects of VEGF action on endothelial cells is its ability to act as a chemoattractant and stimulate the migration of endothelial cells. HUVEC cell migration was analyzed in a modified Boyden chamber assay as follows.
Falcon 8.0 micron filter inserts (Falcon 3097) were coated with type 1 collagen (VITROGEN, COHESION). HUVEC (obtained from Cell Systems, <passage 8) were grown in Cell Systems complete media (4ZO-500) with 10% FCS. Cells were trypsinized and transferred to EBM (Endothelial basal media, Clonetics) with 0.1% BSA for the assay. Cells were plated at 5×10^4 per upper chamber. […] The assay was routinely an 18 hour assay at 37° C. For the LY294002 inhibitor experiments, cells were allowed to adhere for 30 minutes prior to addition of the inhibitor. 20 minutes after inhibitor addition, VEGF was added to the bottom well and the assay was allowed to proceed for only 4 hours to avoid the occurrence of apoptosis associated with the treatment of these primary cells with LY294002 (purchased from Biomol).
Cells were removed from the upper side of the membrane by scraping with a polyurethane swab and then the remaining cells on the bottom side of the membrane were fixed with methanol. Cells were stained with Yo-Pro Iodide nuclear stain (Molecular Probes) and counted under low power fluorescence using an Image-Pro cell recognition program.

[1] = test system: ERK1 and ERK2 in HUVEC cells; assay: Activation of MAP kinases, ERK1/ERK2 phosphorylation Western blot; format: cell-based, human; conditions: 50 ng/ml or 10 ng/ml, 5 minutes, FIG. 12A
Method: (§1) Passage 4–7 HUVEC cells (Cell Systems, Kirkland, Wash.) were grown in Cell System's complete medium (AZ0-500) with 10% fetal calf serum and growth factors on gelatin-coated dishes and made quiescent by 14 hour starvation in 0.2% serum. […] The HUVEC cells were then lysed in 0.5–1 ml RIPA buffer containing 0.1 mM sodium orthovanadate, 5 mM para-nitrophenylphosphate, 10 mM sodium fluoride, 0.5 micromolar okadaic acid and a protease inhibitor cocktail (Roche MB 1836145). Western blot analysis was then conducted, probing for phosphorylated ERK1 or ERK2 using anti-phospho ERK antiserum (Promega).

corneal angiogenesis = assay: Corneal pocket angiogenesis assay; format: in vivo, Sprague-Dawley rats; conditions: rat, pellet with 200 ng growth factor, day 6, FIGS. 15A and 15B
Method: Assays were performed as described by Polyerini et al., Methods Enzymol., 198:440–450 (1991) with the following modifications. Sprague-Dawley rats were anesthetized using a gas (isoflurane)/injectable ketamine (80 mg/kg)/xylazine (15 mg/kg) combination. The eyes were gently proptosed and secured in place using nontraumatic forceps. With a #15 blade, a 1.5 mm incision was made slightly below the center of the cornea. Using a micro spatula (ST80017, ASSI), the incision was carefully blunt-dissected through the stroma toward the outer canthus of the eye. […] After surgery, the eyes were coated with gentamicin ointment. At day 6, the animals were injected with high molecular weight FITC-dextran and euthanized to allow for visualization of the vasculature. Corneal whole mounts were made of the enucleated eyes and measurements of the neovascular area completed using computer-assisted image analysis (Image-Pro Plus).

PLC-gamma in HUVEC cells = assay: PLC-gamma tyrosine phosphorylation after immunoprecipitation; format: cell-based, human; conditions: 20 ng/ml, 5 minutes, FIG. 13A
Method: In order to determine which VEGF receptor(s) are involved in PLC-gamma activation in primary endothelial cells, HUVEC cells were treated with native VEGF or VEGF receptor-selective variants and PLC-gamma phosphorylation was assessed after immunoprecipitation.
Passage 4–7 HUVEC cells (Cell Systems, Kirkland, Wash.) were grown in Cell System's complete medium (AZ0-500) with 10% fetal calf serum and growth factors on gelatin-coated dishes and made quiescent by 14 hour starvation in 0.2% serum. […] The cells were then lysed in 0.5–1 ml RIPA buffer containing 0.1 mM sodium orthovanadate, 5 mM para-nitrophenylphosphate, 10 mM sodium fluoride, 0.5 micromolar okadaic acid and a protease inhibitor cocktail (Roche MB 1836145). PLC-gamma was then immunoprecipitated from whole cell lysates using monoclonal antibodies (Upstate Biotechnology) and analyzed for tyrosine phosphorylation (FIG. 13A) or lysates were immunoprecipitated with monoclonal antibodies against p85 PI 3′-kinase (purchased from Transduction Labs (P13020) and Neomarkers (MS424-P)) and tested for phosphotyrosine using phosphotyrosine antibodies PY20 or E120H (Transduction Labs) (FIG. 13B). Immunoprecipitation was conducted as follows. Protein A/G beads (Pierce) were blocked for nonspecific protein binding in 50 mM HEPES pH 7.2, 0.1% TX-100, 150 mM NaCl and 1 mg/ml ovalbumin for 30 minutes. Antibodies were precoupled in the same buffer for 1 hour at 4° C. with head over end rotation and beads were washed 3 times in lysis buffer. Beads were added to the lysates and rotated overnight. Beads were washed sequentially in 50 mM Tris pH 7.6, 150 mM NaCl, 1% TX-100, 1 mM CaCl2; 50 mM Tris pH 7.6, 500 mM NaCl, 0.1% TX-100, 1 mM CaCl2 and 50 mM Tris pH 7.6, 150 mM NaCl, 0.05% TX-100, 1 mM CaCl2. Beads were then resuspended in 2× sample buffer and boiled. Supernatants were applied directly to 4–12% Tris-Glycine gradient gels (Novex).

[2] = test system: p38 stress-activated MAP kinase in HUVEC cells; assay: p38 MAP kinase phosphorylation Western blot; format: cell-based, human; conditions: 50 ng/ml or 10 ng/ml, 5 minutes, FIG. 12B
Method: VEGF has previously been reported to stimulate the stress-activated, p38 MAP kinase [Rousseau et al., Oncogene, 15:2169–2177 (1997); Yu et al., J. Cell. Phys., 178:235–246 (1999)].
as §1, with “The” for “The HUVEC”, “The phosphorylation state of p38 stress-activated MAP kinase” for “Western blot analysis”, “assessed with an” for “then conducted, probing for phosphorylated ERK1 or ERK2 using”, “p38 specific” for “ERK”, “(NEB).” for “(Promega).”

KDR receptor = assay: RIA assay, binding to KDR receptor; conditions: compared to native VEGF, FIG. 8A
Method: (§2) Various assays were conducted to examine the properties and biological activities of the I43A/I46A/Q79A/I83A Flt-sel variant. For example, quantitative binding measurements were carried out using a soluble radio-immuno receptor-binding assay (RIA), as described in Example 6 above.

[3] = target: T1, KDR transfected NIH3T3 cells (Homo sapiens, UniProt P35968); assay: Receptor-transfected cell binding assay, KDR; conditions: displacement of 125I-VEGF, 4° C., three hours, FIG. 5
T1 construct: expressed in transfected cells; host or cells: NIH3T3 cells
Method: (§3) The assay is described in detail in Example 7. Each point represents the average of duplicate determinations, and errors are estimated to be less than 15% of the values.
(§4) KDR or Flt-1 transfected NIH3T3 cells were prepared as described by Fuh et al., J. Biol. Chem., 273:11187–11204 (1998). The transfected cells were maintained in F12 media supplemented with 10% FBS and 400 ug/ml G418 (GibcoBRL). For the binding assays, the cells were plated in 12-wells plates at 1×10^6/well to reach confluency next day. The cells were then washed and blocked in Hank's buffered saline (HBS) with 1% BSA for one hour before adding ^125I-VEGF (1–109) (prepared by standard chloramine-T methods) and increasing concentrations of unlabeled VEGF variants. 50 pM and 10 pM of labeled VEGF (1–109) was used for KDR and Flt-1 cell binding, respectively. The plates were incubated at 4° C. for three hours and then washed two times with HBS with 0.5% BSA. The bound, labeled VEGF was collected by solubilizing the washed cells with 1N NaOH, and then counted in a gamma-counter (Isodata, ICN).

[4] = test system: MMP-9 secretion by human aorta smooth muscle cells (ASMC); assay: Matrix metalloprotease 9 assay (gelatin zymography); format: cell-based; conditions: 40 ng/ml, 24 hours, compared to native VEGF(1–109) or PlGF, FIG. 11
Method: An assay that measures the secretion of matrix metalloprotease 9 following activation of Flt-1 expressed on human smooth aorta muscle cells was conducted (Wang and Keiser, Circ. Res., 83:832–840 (1998)). Human aorta smooth muscle cells (ASMC) (Clonetics) were maintained in SM2 media (Clonetics) at 37° C. in 5% CO2 and 95% ambient air in the presence of 10% fetal bovine serum in 6-well polystyrene plates (Becton-Dickinson). When, cells attained 90% confluence, they were growth-arrested for 24 hours in serum-free medium containing 0.2% bovine serum albumin (BSA). […] After electrophoresis, proteins were renatured by incubation of the gels for 30 minutes at room temperature in Renaturing Buffer and in Developing Buffer (Novex) for overnight at 37° C. The gels were stained with 0.25% Coomassie Brilliant Blue (Sigma). Gelatinase activity was identified as lightly stained or clear bands following destaining.
Shown is a representative zymogram of one of two independent experiments. Fold change represents the relative band density of the VEGF(1–109)-, VEGF(1–109) variants- or PlGF-treated groups versus the vehicle-treated (PBS) control.

[5] = target: T2, Flt-1 transfected NIH3T3 cells (Homo sapiens, UniProt P17948); assay: Receptor-transfected cell binding assay, Flt-1; conditions: FIG. 6
T2 construct: expressed in transfected cells; host or cells: NIH3T3 cells
Method: as §3, §4

Flt-1 receptor = assay: RIA assay, binding to FLT-1 receptor; conditions: FIG. 8B
Method: as §2

T1 sequence (P35968 20-1356): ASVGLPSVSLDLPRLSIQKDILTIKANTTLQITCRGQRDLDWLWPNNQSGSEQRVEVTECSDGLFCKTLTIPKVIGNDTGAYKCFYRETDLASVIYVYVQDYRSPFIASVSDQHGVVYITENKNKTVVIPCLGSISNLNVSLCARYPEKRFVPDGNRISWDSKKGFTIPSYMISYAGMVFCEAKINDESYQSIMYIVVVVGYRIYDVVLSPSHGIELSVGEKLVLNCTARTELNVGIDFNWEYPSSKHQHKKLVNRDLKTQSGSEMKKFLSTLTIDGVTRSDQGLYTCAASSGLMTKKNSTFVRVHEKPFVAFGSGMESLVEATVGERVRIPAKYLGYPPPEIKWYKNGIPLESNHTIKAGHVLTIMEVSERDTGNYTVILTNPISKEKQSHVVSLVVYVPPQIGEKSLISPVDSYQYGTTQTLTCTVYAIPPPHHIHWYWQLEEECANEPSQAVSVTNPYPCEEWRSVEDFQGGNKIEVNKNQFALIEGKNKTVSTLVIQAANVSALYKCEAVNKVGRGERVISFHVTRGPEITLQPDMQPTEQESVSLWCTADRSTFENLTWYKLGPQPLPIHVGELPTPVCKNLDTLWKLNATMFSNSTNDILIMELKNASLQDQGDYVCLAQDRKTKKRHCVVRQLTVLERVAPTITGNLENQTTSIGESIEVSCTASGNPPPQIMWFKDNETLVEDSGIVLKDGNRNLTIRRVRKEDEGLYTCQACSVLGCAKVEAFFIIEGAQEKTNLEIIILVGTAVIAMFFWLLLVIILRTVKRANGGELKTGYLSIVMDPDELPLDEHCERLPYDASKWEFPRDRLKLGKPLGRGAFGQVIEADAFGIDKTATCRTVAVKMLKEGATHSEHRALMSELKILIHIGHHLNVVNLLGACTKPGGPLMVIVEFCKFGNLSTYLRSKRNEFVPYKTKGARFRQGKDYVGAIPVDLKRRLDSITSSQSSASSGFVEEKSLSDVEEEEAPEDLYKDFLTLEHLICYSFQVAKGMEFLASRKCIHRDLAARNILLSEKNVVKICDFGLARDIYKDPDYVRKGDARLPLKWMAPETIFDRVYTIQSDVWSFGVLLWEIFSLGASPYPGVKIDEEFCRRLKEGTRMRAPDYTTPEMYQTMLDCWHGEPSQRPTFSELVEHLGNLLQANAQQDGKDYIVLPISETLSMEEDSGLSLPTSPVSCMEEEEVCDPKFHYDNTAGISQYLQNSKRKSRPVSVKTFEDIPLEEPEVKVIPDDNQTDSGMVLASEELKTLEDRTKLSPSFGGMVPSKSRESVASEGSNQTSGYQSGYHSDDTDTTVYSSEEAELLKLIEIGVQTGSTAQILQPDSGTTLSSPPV
T2 sequence (P17948 27-1338): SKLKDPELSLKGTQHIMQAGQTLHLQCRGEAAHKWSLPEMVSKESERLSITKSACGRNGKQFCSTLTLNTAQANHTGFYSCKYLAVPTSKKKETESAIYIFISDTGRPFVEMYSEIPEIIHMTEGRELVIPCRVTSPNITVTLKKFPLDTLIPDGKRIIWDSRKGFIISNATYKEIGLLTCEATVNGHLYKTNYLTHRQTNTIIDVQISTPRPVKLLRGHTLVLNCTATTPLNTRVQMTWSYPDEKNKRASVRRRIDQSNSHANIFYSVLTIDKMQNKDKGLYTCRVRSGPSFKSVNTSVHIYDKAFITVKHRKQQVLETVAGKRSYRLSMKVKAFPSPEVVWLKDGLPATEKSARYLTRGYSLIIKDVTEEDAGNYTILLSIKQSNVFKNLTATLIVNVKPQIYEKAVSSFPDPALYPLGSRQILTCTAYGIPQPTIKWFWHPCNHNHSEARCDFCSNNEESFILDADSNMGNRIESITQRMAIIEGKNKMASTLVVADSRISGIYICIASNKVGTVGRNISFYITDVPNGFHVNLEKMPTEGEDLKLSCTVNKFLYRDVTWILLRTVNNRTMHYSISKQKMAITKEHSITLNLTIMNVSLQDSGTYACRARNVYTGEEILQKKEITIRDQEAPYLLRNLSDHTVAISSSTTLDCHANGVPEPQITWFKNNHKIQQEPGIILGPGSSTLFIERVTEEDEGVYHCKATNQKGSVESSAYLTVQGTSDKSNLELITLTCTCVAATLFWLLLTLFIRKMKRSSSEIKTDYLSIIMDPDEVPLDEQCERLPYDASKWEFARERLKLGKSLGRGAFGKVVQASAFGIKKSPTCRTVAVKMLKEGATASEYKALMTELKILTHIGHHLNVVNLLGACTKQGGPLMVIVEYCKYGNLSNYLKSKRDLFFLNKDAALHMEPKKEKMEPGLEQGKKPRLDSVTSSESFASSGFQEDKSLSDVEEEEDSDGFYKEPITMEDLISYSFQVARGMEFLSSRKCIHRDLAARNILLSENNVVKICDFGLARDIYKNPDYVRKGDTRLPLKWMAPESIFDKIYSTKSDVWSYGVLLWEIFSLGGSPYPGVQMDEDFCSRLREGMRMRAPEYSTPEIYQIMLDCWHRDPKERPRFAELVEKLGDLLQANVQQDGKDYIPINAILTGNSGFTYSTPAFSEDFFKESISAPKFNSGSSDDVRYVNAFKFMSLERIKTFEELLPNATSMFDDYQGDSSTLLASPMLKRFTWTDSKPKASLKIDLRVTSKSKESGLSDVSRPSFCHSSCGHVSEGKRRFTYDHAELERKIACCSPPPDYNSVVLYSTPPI
Chain of Flt-1 receptor (P17948 27-331 limits assumed): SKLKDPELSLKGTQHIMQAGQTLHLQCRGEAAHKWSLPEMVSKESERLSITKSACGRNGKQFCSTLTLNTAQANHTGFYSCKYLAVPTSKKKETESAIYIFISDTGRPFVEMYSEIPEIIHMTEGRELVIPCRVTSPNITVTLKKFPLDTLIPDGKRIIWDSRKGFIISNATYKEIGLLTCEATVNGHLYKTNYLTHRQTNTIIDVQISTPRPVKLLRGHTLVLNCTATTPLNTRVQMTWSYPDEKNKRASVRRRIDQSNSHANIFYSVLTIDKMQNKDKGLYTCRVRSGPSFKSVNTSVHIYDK
Chain of KDR receptor (P35968 20-327 limits assumed): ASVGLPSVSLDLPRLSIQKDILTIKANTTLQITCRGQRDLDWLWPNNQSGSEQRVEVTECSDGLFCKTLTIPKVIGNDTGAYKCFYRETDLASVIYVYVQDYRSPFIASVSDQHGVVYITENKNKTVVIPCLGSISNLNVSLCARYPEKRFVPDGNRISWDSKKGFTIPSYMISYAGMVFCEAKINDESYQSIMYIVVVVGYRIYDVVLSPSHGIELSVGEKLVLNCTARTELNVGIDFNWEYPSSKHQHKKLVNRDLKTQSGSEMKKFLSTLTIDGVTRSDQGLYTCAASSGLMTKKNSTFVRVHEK

In the case of “LK-VRB-2f: full length 1–165 VEGF variant with D63S/G65M/L66R”, the “promotion of HUVEC cell migration” value (HUVEC cells) is reported as “as effective as the native VEGF”, the “phosphorylation of ERK1 and ERK2” value [1] is reported as “triggered phosphorylation of ERK1 and ERK2” and the “induction of corneal angiogenesis” value (corneal angiogenesis) is reported as “as efficient as native VEGF in inducing corneal angiogenesis”. For the same molecule, the PLC-gamma phosphorylation (PLC-gamma in HUVEC cells) was “able to stimulate PLC-gamma phosphorylation to a similar extent” and the p38 phosphorylation [2] was “able to stimulate p38 phosphorylation”.

B1: Flt-sel: VEGF (1–109) variant with alanine substitutions at Ile 43, Ile 46, Gln 79 and Ile 83; Flt-1 selective (protein)
chain: APMAEGGGQNHHEVVKFMDVYQRSYCHPIETLVDIFQEYPDEAEYAFKPSCVPLMRCGGCCNDEGLECVPTEESNITMAIMRAKPHQGQHIGEMSFLQHNKCECRPKKD
B1 was tested, and the “fold reduced KDR-binding affinity (RIA)” value (KDR receptor) was “at least 470 fold”, the “binding to KDR-transfected NIH3T3 cells” value [3] was “no detectable binding” and the “stimulation of MMP-9 secretion” value [4] was “fully active”. For the same molecule, the “binding to Flt-1-transfected cells” value [5] was “slightly improved binding” and the “affinity for Flt-1 compared to native protein (RIA)” value (Flt-1 receptor) was “essentially identical to that of the native protein”.
